Assay results from article PMC3915196, “Asymmetric Synthesis of Spirocyclic 2-Benzopyrans for Positron Emission Tomography of σ1 Receptors in the Brain” (Pharmaceuticals, 2014).
Where two headings read alike, the source gives them in different places. Marks after values point to notes of the source that are not given here.

What was measured:
[1] = molecular target: T1, σ1 receptor (Cavia porcellus, UniProt Q60492); test: σ1 receptor binding assay with [3H]-(+)-pentazocine; parameters: species or system guinea pig
T1 construct: five guinea pig brains were homogenized with the Potter; tissue Harlan-Winkelmann, Borchen, Germany; host or cells: guinea pig brain (cortex) membrane homogenate

[2] = molecular target: T2, σ2 receptor (Rattus norvegicus, UniProt Q5U3Y7); test: σ2 receptor binding assay with [3H]DTG, σ1 sites masked with (+)-pentazocine; details: for inhibition at 1 µM: read-out: Inhibition of radioligand binding (σ2)
T2 construct: two rat livers were cut into small pieces and homogenized with the Potter; tissue Harlan-Winkelmann, Borchen, Germany; host or cells: rat liver membrane homogenate
T2 sequence (Q5U3Y7 1-176): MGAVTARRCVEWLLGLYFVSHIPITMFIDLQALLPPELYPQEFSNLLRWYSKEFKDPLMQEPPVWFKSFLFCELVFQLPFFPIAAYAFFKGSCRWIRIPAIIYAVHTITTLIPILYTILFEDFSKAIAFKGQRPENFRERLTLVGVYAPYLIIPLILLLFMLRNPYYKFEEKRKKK

[3] = molecular target: T3, σ1 receptors in the brain (Mus musculus, UniProt O55242); parameters: method as in PMID 21072511; details: 30 min after injection, 18F-labeled tracer; cited from earlier work
T3 construct: tissue Medizinisch-Experimentelles Zentrum, Universität Leipzig; host or cells: brain of female CD1 mice (in vivo / ex vivo autoradiography)

[4] = cited from earlier work
[5] = molecular target: T3, σ1 receptors in the brain; test: Brain uptake and ex vivo autoradiography under control and haloperidol blocking conditions; type: in vivo
Description: The experimental protocols were approved by the local ethics committee and conducted according to the national and EU regulations for animal research. Female CD1 mice (10–12 weeks old, 33.8 ± 6.2 g) were obtained from the Medizinisch-Experimentelles Zentrum, Universität Leipzig and housed under a 12 h/12 h light/dark cycle with free access to food and water for at least 24 h before experiments. Animals were sacrificed by CO2 asphyxiation after anaesthesia with O2/CO2 mixture.
The tracer distribution in the brain under control and blocking conditions was determined by ex vivo autoradiography studies. […] Animals were sacrificed at 30 min p.i. Blood was collected by heart puncture, the brain quickly removed and transferred on ice, and all samples were weighed. Radioactivity in brain and plasma samples was counted using an automated γ-counter and expressed as percentage of injected dose per gram (%ID/g). For autoradiography, the brain hemispheres were frozen immediately after isolation in 2-methylbutane (Carl Roth, Karlsruhe, Germany) at −30 °C (>2 min). Serial sagittal slices of 12 µm thickness were cut on a cryostat (Microm, Walldorf, Germany) from approx. midline, +500 µm, +1,000 µm and +1,500 µm. Slices were exposed overnight on an imaging plate (SR 2025, Fuji, Tokyo, Japan), scanned afterwards with a high-resolution phosphorimager (HD-CR 35 Bio, raytest). 2D densitometry of the whole brain was performed with AIDA software (raytest).

[6] = phosphate buffer, Dulbecco buffer and native mouse plasma over 30 min at 37 °C
Description: For pharmacological characterization of the radiotracer [^18F]-(R)-20, chemical stability was investigated in vitro in different buffer systems over 2 h at 40 °C: 50 mM phosphate buffer (pH 7.2), phosphate-saline-solution (Dulbecco; pH 7.2) and 0.01 M TRIS-HCl (pH 7.4).

[7] = female, CD1, mouse, in vivo
[8] = HPLC calibration; cited from earlier work
[9] = molecular target: T1, σ1 receptor; details: earlier 2-benzofuran tracers, quoted for comparison, no reference printed at the values; cited from earlier work
[10] = rat liver membranes, [3H]DTG, read-out: Ki ± SEM σ2
[11] = at a concentration of 1 µM, rat liver membranes, [3H]DTG
[12] = established PET tracers, quoted for comparison, no reference given

T3 sequence (O55242 whole entry): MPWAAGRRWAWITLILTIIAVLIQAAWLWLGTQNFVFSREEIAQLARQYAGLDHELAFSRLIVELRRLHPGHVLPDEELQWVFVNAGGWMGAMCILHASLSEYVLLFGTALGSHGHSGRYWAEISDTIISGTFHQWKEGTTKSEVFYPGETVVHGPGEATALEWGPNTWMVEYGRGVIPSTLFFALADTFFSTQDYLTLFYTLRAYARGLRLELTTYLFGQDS
T1 sequence (Q60492 whole entry): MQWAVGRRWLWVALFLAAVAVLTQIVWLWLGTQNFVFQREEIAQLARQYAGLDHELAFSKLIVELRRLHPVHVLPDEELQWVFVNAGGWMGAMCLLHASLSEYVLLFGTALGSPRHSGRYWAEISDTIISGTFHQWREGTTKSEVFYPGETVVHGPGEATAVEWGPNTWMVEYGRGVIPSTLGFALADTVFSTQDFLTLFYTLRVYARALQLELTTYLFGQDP

With `O[C@H]1COC2(CCN(Cc3ccccc3)CC2)c2ccccc21` the melting point was 55 °C.
With `O[C@@H]1COC2(CCN(Cc3ccccc3)CC2)c2ccccc21` the melting point was 53 °C.
In the case of `CC(C)(C)OC(=O)N1CCC2(CC1)OC[C@H](O)c1ccccc12` [(R)-11, tert-Butyl (R)-4-hydroxy-3,4-dihydrospiro[[2]benzopyran-1,4′-piperidine]-1′-carboxylate], the Ki ([1]; guinea pig brain membranes, [3H]-(+)-pentazocine, three independent experiments, read-out: Ki ± SEM σ1) is reported as 5.2 ± 0.3 nM, the “Selectivity σ1/σ2” value ([1]; ratio of σ2 and σ1 Ki values) is reported as 413 and the Ki [2, 10] is reported as 2150 nM. It also gave a melting point of 161 °C.
With `CO[C@H]1COC2(CCN(Cc3ccccc3)CC2)c2ccccc21` [(R)-15, (R)-1′-Benzyl-4-methoxy-3,4-dihydrospiro[[2]benzopyran-1,4′-piperidine]] the Ki [1] was 1.2 ± 0.3 nM, the “Selectivity σ1/σ2” value [1] was 958 and the “eudismic ratio (σ1 affinity)” value [1] was 7. For the same compound, the Ki [2, 10] was 1150 nM.
For `CCO[C@H]1COC2(CCN(Cc3ccccc3)CC2)c2ccccc21` [(R)-16, (R)-1′-Benzyl-4-ethoxy-3,4-dihydrospiro[[2]benzopyran-1,4′-piperidine]], the Ki [1] was 5 ± 1.2 nM, the “Selectivity σ1/σ2” value [1] was 191 and the Ki [2] was 954 nM.
For `CCOC(=O)CO[C@H]1COC2(CCN(Cc3ccccc3)CC2)c2ccccc21` [(R)-18, Ethyl (R)-2-[(1′-benzyl-3,4-dihydrospiro[[2]benzopyran-1,4′-piperidin]-4-yl)oxy]acetate], the Ki [1] was 4 ± 0.8 nM, the “Selectivity σ1/σ2” value [1] was 138 and the “eudismic ratio (σ1 affinity)” value [1] was 29. The Ki [2] was 552 nM.
For `OCCO[C@H]1COC2(CCN(Cc3ccccc3)CC2)c2ccccc21` [(R)-19, (R)-2-[(1′-Benzyl-3,4-dihydrospiro[[2]benzopyran-1,4′-piperidin]-4-yl)oxy]ethanol], the Ki [1] was 55 ± 1 nM, the “Selectivity σ1/σ2” value [1] was greater than 15 and the inhibition at 1 µM [2, 11] was 0%.
With `FCCO[C@H]1COC2(CCN(Cc3ccccc3)CC2)c2ccccc21` [(R)-20, (R)-1′-Benzyl-4-(2-fluoroethoxy)-3,4-dihydrospiro[[2]benzopyran-1,4′-piperidine]] the Ki [1] was 4.7 ± 0.7 nM, the “Selectivity σ1/σ2” value [1] was greater than 210 and the inhibition at 1 µM [2, 11] was 14%.
With `CO[C@@H]1COC2(CCN(Cc3ccccc3)CC2)c2ccccc21` [(S)-15, (S)-1′-Benzyl-4-methoxy-3,4-dihydrospiro[[2]benzopyran-1,4′-piperidine]] the Ki [1] was 8.8 ± 1.1 nM, the “Selectivity σ1/σ2” value [1] was 77 and the Ki [2, 10] was 676 nM.
For `CCO[C@@H]1COC2(CCN(Cc3ccccc3)CC2)c2ccccc21` [(S)-16, (S)-1′-Benzyl-4-ethoxy-3,4-dihydrospiro[[2]benzopyran-1,4′-piperidine]], the Ki [1] was 4.2 ± 0.8 nM, the “Selectivity σ1/σ2” value [1] was greater than 235 and the inhibition at 1 µM [2] was 31%.
With `CCOC(=O)CO[C@@H]1COC2(CCN(Cc3ccccc3)CC2)c2ccccc21` [(S)-18, Ethyl (S)-2-[(1′-benzyl-3,4-dihydro-3,4-dihydrospiro[2-benzopyran-1,4′-piperidin]-4-yl)oxy]acetate] the Ki [1] was 114 nM, the “Selectivity σ1/σ2” value [1] was greater than 5 and the inhibition at 1 µM [2] was 12%.
For `OCCO[C@@H]1COC2(CCN(Cc3ccccc3)CC2)c2ccccc21` [(S)-19, (S)-2-[(1′-Benzyl-3,4-dihydrospiro[[2]benzopyran-1,4′-piperidin]-4-yl)oxy]ethanol], the Ki [1] was 64 ± 0.9 nM, the “Selectivity σ1/σ2” value [1] was greater than 15 and the inhibition at 1 µM [2, 11] was 0%.
For `FCCO[C@@H]1COC2(CCN(Cc3ccccc3)CC2)c2ccccc21` [(S)-20, (S)-1′-Benzyl-4-(2-fluoroethoxy)-3,4-dohydrospiro[[2]benzopyran-1,4′-piperidine]], the Ki [1] was 5.9 ± 2.9 nM, the “Selectivity σ1/σ2” value [1] was greater than 170 and the inhibition at 1 µM [2, 11] was 10%.
In the case of `FCCCCC1OC2(CCN(Cc3ccccc3)CC2)c2ccccc21` (stereo not drawn) [Compound 2d], the total-to-nonspecific binding ratio [3] is given as “approx. 3”.
For `FCCC1OC2(CCN(Cc3ccccc3)CC2)c2ccccc21` (stereo not drawn) [[^18F]2b], the total-to-nonspecific binding ratio [3] is given as “approx. 3”, the “parent compound in liver samples” value ([4]; mouse, in vivo) is given as 69% and the “unchanged parent compound in plasma” value ([4]; mouse, in vivo) is given as 89%.
In the case of `[18F]CCCC1OC2(CCN(Cc3ccccc3)CC2)c2ccccc21` (stereo not drawn) [[^18F]2c], the “parent compound in liver samples” value [4, 12] is listed as 65% and the “unchanged parent compound in plasma” value [4, 12] is listed as 86%.
For `[18F]CCO[C@H]1COC2(CCN(Cc3ccccc3)CC2)c2ccccc21` [[^18F]-(R)-20], the Ki [1] was 4.7 nM, the “mean decrease of radiotracer uptake in slices of the whole brain hemisphere with haloperidol” value ([5]; 2D densitometry of ex vivo autoradiographs) was “about 40%” and the total-to-nonspecific binding ratio ([5]; mouse brain, 30 min p.i.) was 1.5. The “uptake of radioactivity in the brain” value ([5]; mouse, 30 min p.i., blocking conditions, co-application of 1 mg/kg haloperidol) was 2.24 % ID/g, the “uptake of radioactivity in the brain” value ([5]; mouse, 30 min p.i., control conditions) was 3.4 % ID/g and the “reduction of brain uptake by haloperidol co-application” value ([5]; mouse, 30 min p.i., from %ID/g values) was 34%. For the same compound, the defluorination [6] was “No defluorination was observed”, the “non-metabolized radiotracer of total radioactivity in urine” value ([7]; 0.5 h) was 2-20% and the “unchanged parent radiotracer in liver” value ([7]; 30 min) was roughly 56%.
For `Clc1ccccc1` [chlorobenzene], the “logD of reference compounds used for calibration” value (from here on “logD of reference compounds used”) [8] is listed as 2.8.
For `c1ccc2c(c1)-c1cccc3cccc-2c13` [fluoranthene], the “logD of reference compounds used” value [8] is given as 5.1.
For `FCCC1OC2(CCN(Cc3ccccc3)CC2)c2ccccc21` (stereo not drawn) [fluspidine], the Ki [9] is listed as 0.59 nM.
For `c1ccc2ccccc2c1` [naphthalene], the “logD of reference compounds used” value [8] is listed as 3.6.
In the case of “tert-Butyl (S)-4-hydroxy-3,4-dihydrospiro[[2]benzopyran-1,4′-piperidine]-1′-carboxylate [(S)-11]”, the “Selectivity σ1/σ2” value [1] is reported as greater than 55, the Ki ([1]; read-out: Ki ± SEM σ1) is reported as 18 ± 5 nM and the “Inhibition of radioligand binding (σ2)” value ([2]; 1 µM) is reported as 24% *.
